Data reported in PubChem BioAssay AID206 (DTP/NCI, 2004).
Where “and” joins values, the source holds several entries; their conditions need not be identical. Equal entries are not always repeated. Results filed as inconclusive are left out.

Tested on: nude mice, HT29 intrarenal xenograft, tumor weight T/C
Experiment: NCI In Vivo Anticancer Drug Screen. Data for tumor model HT29;CX-1 Human Adenocarcinoma (MER+) (intrarenal inoculation) in NU/NU Swiss (nude) mice
Details: endpoint: mean tumor weight change, higher = larger tumour
How it was run: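 Mice with transplanted tumors are dosed with compound while controls get vehicle only. Survival or tumor burden is then assessed per group, and the treated value is expressed relative to control.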

[1] = dose: 200.0 mg/kg/injection, schedule: Q04DX004 (sc), vehicle: saline with Tween-80
[2] = dose: 400.0 mg/kg/injection, schedule: Q04DX004 (sc), vehicle: saline with Tween-80
[3] = dose: 150.0 mg/kg/injection, schedule: Q04DX004 (sc), vehicle: Klucel (hydroxypropylcellulose) (HPC)
[4] = dose: 300.0 mg/kg/injection, schedule: Q04DX004 (sc), vehicle: Klucel (hydroxypropylcellulose) (HPC)
[5] = dose: 600.0 mg/kg/injection, schedule: Q04DX004 (sc), vehicle: Klucel (hydroxypropylcellulose) (HPC)
[6] = dose: 50.0 mg/kg/injection, schedule: Q01DX010 (sc), vehicle: saline
[7] = dose: 100.0 mg/kg/injection, schedule: Q04DX004 (sc), vehicle: saline with Tween-80

With Nc1nc(-c2cccc3ccccc23)cc2ccccc12 the T/C [1] was 67 % of control and the T/C [2] was 105 % of control.
With CCOC(=O)C(C)(C)Oc1ccc(Cl)cc1 the T/C (dose: 300.0 mg/kg/injection, schedule: Q04DX004 (sc), vehicle: saline with Tween-80) was 72 % of control, the T/C (dose: 600.0 mg/kg/injection, schedule: Q04DX004 (sc), vehicle: saline with Tween-80) was 70 % of control and the T/C (dose: 1200.0 mg/kg/injection, schedule: Q04DX004 (sc), vehicle: saline with Tween-80) was 68 % of control.
Cc1ccc(S(=O)(=O)NC(=O)C2C(=O)CC3(CCCCC3)CC2=O)cc1 was tested, and the T/C [3] was 80 % of control, the T/C [4] was 84 % of control and the T/C [5] was 58 % of control.
With COc1cc2c(c(OC)c1OC)-c1ccc(OC)c(=O)cc1[C@@H](NC(=O)CCl)CC2 the T/C (dose: 0.63 mg/kg/injection, schedule: Q04DX004 (sc), vehicle: saline with Tween-80) was 60 % of control, the T/C (dose: 1.25 mg/kg/injection, schedule: Q04DX004 (sc), vehicle: saline with Tween-80) was 32 % of control and the T/C (dose: 2.5 mg/kg/injection, schedule: Q04DX004 (sc), vehicle: saline with Tween-80) was 57 % of control.
For O=c1n(CC2CO2)c(=O)n(CC2CO2)c(=O)n1CC1CO1 (configuration not stated), the T/C (dose: 18.75 mg/kg/injection, schedule: Q04DX004 (sc), vehicle: saline with Tween-80) was 42 % of control, the T/C (dose: 25.0 mg/kg/injection, schedule: Q01DX010 (sc), vehicle: saline) was 76 % of control and the T/C (dose: 37.5 mg/kg/injection, schedule: Q04DX004 (sc), vehicle: saline with Tween-80) was 33 % of control. The T/C [6] was 29 % of control.
In the case of CO[C@H]1C[C@](C)(O)Cc2cc3c(c(O)c21)C(=O)c1c(O)cc2c(c1C3=O)O[C@@H]1O[C@@]2(C)[C@H](O)[C@@H](N(C)C)[C@@H]1O, the T/C (dose: 50.0 mg/kg/injection, schedule: Q04DX004 (sc), vehicle: other) is reported as 99 % of control.
With C/C(=N\NC(N)=O)c1cccc(/C(C)=N/NC(N)=O)n1 the T/C [1] was 106 % of control and the T/C [2] was 108 % of control.
COCCCNC1=C(C#N)C(=O)NC(c2cccc([N+](=O)[O-])c2)S1 (configuration not stated) was tested, and the T/C [7] was 91 % of control, the T/C [1] was 165 % of control and the T/C (dose: 800.0 mg/kg/injection, schedule: Q04DX004 (sc), vehicle: saline with Tween-80) was 164 % of control.
With CC[n+]1c(-c2ccccc2)c2cc(N)ccc2c2ccc(N)cc21 the T/C (dose: 15.0 mg/kg/injection, schedule: Q04DX004 (sc), vehicle: saline) was 119 % of control, the T/C (dose: 30.0 mg/kg/injection, schedule: Q04DX004 (sc), vehicle: saline) was 66 % of control and the T/C (dose: 60.0 mg/kg/injection, schedule: Q04DX004 (sc), vehicle: saline) was 53 % of control.
In the case of [N-]=[N+]=CC(=O)CCC(N)C(=O)O (configuration not stated), the T/C (dose: 0.1 mg/kg/injection, schedule: Q01DX010 (sc), vehicle: saline) is reported as 73 % of control and the T/C (dose: 0.2 mg/kg/injection, schedule: Q01DX010 (sc), vehicle: saline) is reported as 43 % of control.
O=c1s[se]c2ccccc12 was tested, and the T/C (dose: 75.0 mg/kg/injection, schedule: Q04DX004 (sc), vehicle: Klucel (hydroxypropylcellulose) (HPC)) was 108 % of control, the T/C [3] was 48 % of control and the T/C [5] was 74 % of control.
For N=C(N)SCc1c2ccccc2c(CSC(=N)N)c2ccccc12, the T/C (dose: 25.0 mg/kg/injection, schedule: Q04DX004 (sc), vehicle: suspension in saline) was 69 % of control, the T/C (dose: 50.0 mg/kg/injection, schedule: Q04DX004 (sc), vehicle: suspension in saline) was 72 % of control and the T/C (dose: 100.0 mg/kg/injection, schedule: Q04DX004 (sc), vehicle: suspension in saline) was 52 % of control. For the same compound, the T/C (dose: 200.0 mg/kg/injection, schedule: Q04DX004 (sc), vehicle: suspension in saline) was 75 % of control.
For N=C(N)Sc1ccccn1, the T/C [6] was 89 % of control, the T/C (dose: 100.0 mg/kg/injection, schedule: Q01DX010 (sc), vehicle: saline) was 100 % of control and the T/C (dose: 200.0 mg/kg/injection, schedule: Q01DX010 (sc), vehicle: saline) was 41 % of control. For the same compound, the T/C (dose: 400.0 mg/kg/injection, schedule: Q01DX010 (sc), vehicle: saline) was 74 % of control.
In the case of CCc1ccccc1N1CCN(C(=O)c2cc(OC)c(OC)c(OC)c2)CC1, the T/C [4] is reported as 57 % of control, the T/C [5] is reported as 120 % of control and the T/C (dose: 1200.0 mg/kg/injection, schedule: Q04DX004 (sc), vehicle: Klucel (hydroxypropylcellulose) (HPC)) is reported as 84 % of control.
In the case of NC1=NC(=O)N2CC12 (configuration not stated), the T/C (dose: 50.0 mg/kg/injection, schedule: Q04DX004 (sc), vehicle: saline) is reported as 103 % of control, the T/C (dose: 100.0 mg/kg/injection, schedule: Q04DX004 (sc), vehicle: saline) is reported as 85 % of control and the T/C (dose: 200.0 mg/kg/injection, schedule: Q04DX004 (sc), vehicle: saline) is reported as 79 % of control.
With CCOC(=O)C(N)C[S][Sn]([CH3])([CH3])[Cl] (configuration not stated) the T/C (dose: 18.75 mg/kg/injection, schedule: Q04DX004 (sc), vehicle: saline) was 169 % of control and the T/C (dose: 75.0 mg/kg/injection, schedule: Q04DX004 (sc), vehicle: saline) was 72 % of control.
In the case of S=c1nc[nH]c2nc[nH]c12, the T/C (dose: 12.5 mg/kg/injection, schedule: Q01DX010 (sc), vehicle: Klucel (hydroxypropylcellulose) (HPC)) is reported as 200 % of control and the T/C (dose: 25.0 mg/kg/injection, schedule: Q01DX010 (sc), vehicle: Klucel (hydroxypropylcellulose) (HPC)) is reported as 81 % of control.
With O=C(O)C1Cc2nc[nH]c2CN1CO (configuration not stated) the T/C [7] was 90 % of control and the T/C (dose: 1600.0 mg/kg/injection, schedule: Q04DX004 (sc), vehicle: saline with Tween-80) was 108 % of control.
In the case of COc1cccc2c1C(=O)c1c(O)c3c(c(O)c1C2=O)C[C@@](O)(C(=O)CO)C[C@@H]3OC1CC(N)C(OC)C(C)O1 (some centres not stated), the T/C (dose: 3.13 mg/kg/injection, schedule: Q04DX004 (sc), vehicle: saline) is reported as 207 % of control.
With CC(=O)C(=O)O.CC(=O)C(=O)O.[NH-]C1CCCCC1[NH-].[Pt+2] (configuration not stated) the T/C (dose: 15.0 mg/kg/injection, schedule: Q04DX004 (sc), vehicle: other) was 64 % of control, the T/C (dose: 30.0 mg/kg/injection, schedule: Q04DX004 (sc), vehicle: other) was 64 % of control and the T/C (dose: 60.0 mg/kg/injection, schedule: Q04DX004 (sc), vehicle: other) was 47 % of control.
Cc1ccc(S(=O)(=O)NC(=S)S)cc1 was tested, and the T/C (dose: 100.0 mg/kg/injection, schedule: Q01DX010 (sc), vehicle: saline with Tween-80) was 110 % of control and the T/C (dose: 200.0 mg/kg/injection, schedule: Q01DX010 (sc), vehicle: saline with Tween-80) was 191 % of control.
CC(C)NCC(O)COc1ccc(O)c(O)c1 (configuration not stated) was tested, and the T/C (dose: 3.0 mg/kg/injection, schedule: Q04DX004 (sc), vehicle: saline) was 107 % of control, the T/C (dose: 6.0 mg/kg/injection, schedule: Q04DX004 (sc), vehicle: saline) was 103 % of control and the T/C (dose: 12.0 mg/kg/injection, schedule: Q04DX004 (sc), vehicle: saline) was 164 % of control.
CC(=O)Oc1c(C)[nH]ccc1=O was tested, and the T/C (dose: 600.0 mg/kg/injection, schedule: Q04DX004 (sc), vehicle: suspension in saline) was 112 % of control and the T/C (dose: 1200.0 mg/kg/injection, schedule: Q04DX004 (sc), vehicle: suspension in saline) was 77 % of control.
With O=C1N[C@@H]([C@H]2CC[C@H](Cl)CN2)C(=O)N[C@H]1[C@H]1CC[C@H](Cl)CN1 the T/C (dose: 0.16 mg/kg/injection, schedule: Q01DX010 (sc), vehicle: water) was 65 % of control and 70 % of control and 74 % of control and the T/C (dose: 0.31 mg/kg/injection, schedule: Q01DX010 (sc), vehicle: water) was 20 % of control.
For Nc1nc2ccc(NCc3ccc(C(=O)NC(CCC(=O)O)C(=O)O)cc3)cc2c(=O)[nH]1 (configuration not stated), the T/C (dose: 50.0 mg/kg/injection, schedule: Q04DX004 (sc), vehicle: saline with Tween-80) was 36 % of control, the T/C [7] was 46 % of control and 50 % of control and the T/C [1] was 16 % of control and 29 % of control.
O=C(O[Si](Cc1ccccc1)(Cc1ccccc1)Cc1ccccc1)N(CCCl)CCCl was tested, and the T/C [7] was 119 % of control and the T/C [1] was 121 % of control.
Nc1cc(Cl)c2[nH]cnc2n1 was tested, and the T/C (dose: 100.0 mg/kg/injection, schedule: Q04DX004 (sc), vehicle: water) was 160 % of control and the T/C (dose: 400.0 mg/kg/injection, schedule: Q04DX004 (sc), vehicle: water) was 96 % of control.
In the case of CC(=O)Oc1c[nH]c(=O)[nH]c1=O, the T/C (dose: 100.0 mg/kg/injection, schedule: Q04DX004 (sc), vehicle: distilled water + Tween-80) is reported as 122 % of control, the T/C (dose: 200.0 mg/kg/injection, schedule: Q04DX004 (sc), vehicle: distilled water + Tween-80) is reported as 117 % of control and the T/C (dose: 400.0 mg/kg/injection, schedule: Q04DX004 (sc), vehicle: distilled water + Tween-80) is reported as 107 % of control. The T/C (dose: 800.0 mg/kg/injection, schedule: Q04DX004 (sc), vehicle: distilled water + Tween-80) was 93 % of control.
For O=[n+]1c2ccccc2n([O-])c2ccccc21.[Cl][Ni][Cl], the T/C (dose: 75.0 mg/kg/injection, schedule: Q04DX004 (sc), vehicle: saline with Tween-80) was 92 % of control and the T/C (dose: 150.0 mg/kg/injection, schedule: Q04DX004 (sc), vehicle: saline with Tween-80) was 89 % of control.
In the case of CC(=O)OC1=NC(C)c2c1cc(OC(C)=O)[nH]c2=O (configuration not stated), the T/C (dose: 225.0 mg/kg/injection, schedule: Q04DX004 (sc), vehicle: Klucel (hydroxypropylcellulose) (HPC)) is reported as 108 % of control and the T/C (dose: 900.0 mg/kg/injection, schedule: Q04DX004 (sc), vehicle: Klucel (hydroxypropylcellulose) (HPC)) is reported as 58 % of control.
